≈ marks a conversion by molar mass, not a printed value. Where a SMILES comes first, the peptide text is derived from it. Bridges are numbered along the chain shown (N, C = ends). Roman numbers before positions name the chains, in order. [ ]: non-standard residue; d: D form. Tle = CC(C)(C)[C@H](N)C(=O)O; dOrn = NCCC[C@@H](N)C(=O)O; dDab = NCC[C@@H](N)C(=O)O; hSer = N[C@@H](CCO)C(=O)O; Orn = NCCC[C@H](N)C(=O)O; Dab = NCC[C@H](N)C(=O)O; Dap = NC[C@H](N)C(=O)O
What was measured:
Format in all cases: cell-based
[1] = test system: Escherichia coli 926415; settings: 926415
Experimental: (§1) The in vitro antimicrobial activities of the peptides were determined in 96-well plates (Greiner, polystyrene) by the standard CLSI broth microdilution method (Clinical and Laboratory Standards Institute 2014. Performance standards for antimicrobial susceptibility testing, 24th informational supplement. Approved standard CLSI M100-S24; Clinical and Laboratory Standards Institute, Wayne, Pa.). The following microorganisms were used to determine antibiotic activity of the peptides: Escherichia coli ATCC 25922, Klebsiella pneumoniae SSI #3010^a), Acinetobacter baumannii DSM 30008, Pseudomonas aeruginosa ATCC 27853 and the clinical isolates Escherichia coli 926415^b), Klebsiella pneumoniae 968733^b), Acinetobacter baumannii 872842^b), Enterobacter cloacae 848840^b) and Escherichia coli MCR-1 Af45^c). Before preparation of inocula, Escherichia coli MCR-1 Af45 was subcultured on Mueller-Hinton II (MH-cation adjusted) agar containing 2 μg/mL colistin. ^a) Obtained from Statens Serum Institut (SSI), Copenhagen, Denmark^b) Obtained from International Health Management Associates, Inc. (IHMA Europe Sàrl), Epalinges, Switzerland^c) Obtained from Prof. Patrice Nordmann, University of Fribourg, Fribourg, Switzerland
(§2) Inocula of the microorganisms were diluted into Mueller-Hinton II (MH-cation adjusted) broth and compared with a 0.5 McFarland standard to give appr. 10^6 colony forming units (CFU)/mL. Aliquots (90 μL) of inoculum were added to 10 μL of MH-II broth+P-80 (Polysorbate 80, 0.002% final concentration, v/v) containing the peptide in serial two-fold dilutions. Antimicrobial activities of the peptides were expressed as the minimal inhibitory concentration (MIC) in μg/mL at which no visible growth was observed after 18-20 hours of incubation at 35° C.

[2] = test system: Enterobacter cloacae 848840; settings: 848840
Experimental: as §1, §2

[3] = test system: Pseudomonas aeruginosa ATCC 27853; settings: ATCC 27853
Experimental: as §1, §2

[4] = test system: Acinetobacter baumannii 872842; settings: 872842
Experimental: as §1, §2

[5] = test system: Escherichia coli ATCC 25922; settings: ATCC 25922
Experimental: as §1, §2

[6] = test system: Klebsiella pneumoniae 968733; settings: 968733
Experimental: as §1, §2

[7] = test system: Klebsiella pneumoniae SSI #3010; settings: SSI #3010
Experimental: as §1, §2

[8] = test system: Acinetobacter baumannii DSM 30008; settings: DSM 30008
Experimental: as §1, §2

[9] = test system: human red blood cells (hRBC); assay: Hemolysis; settings: red cells of human, 1 h, 200
Procedure, shortened: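 Washed fresh human RBC (20% v/v) incubated with peptide at 200 μg/mL for 1 h at 37° C with shaking. Supernatant OD540 measured after dilution, blank corrected; percent hemolysis = OD540 peptide / OD540 of 2% Triton X-100 lysis × 100, PBS with 10% water as 0%.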

Compound	MIC [1] [µg/mL]	MIC [2] [µg/mL]	MIC [3] [µg/mL]	MIC [4] [µg/mL]	MIC [5] [µg/mL]	MIC [6] [µg/mL]	MIC [7] [µg/mL]	MIC [8] [µg/mL]	Hemolysis at 200 μg/mL [9] [%]
CC(=O)N[C@H](C(=O)N[C@H]1CCCNC(=O)[C@@H](Cc2ccc(O)cc2)NC(=O)[C@H](C(C)(C)C)NC(=O)[C@H](CO)NC(=O)[C@H](Cc2c[nH]c3ccccc23)NC(=O)[C@H](CCO)NC(=O)[C@@H](CCN)NC(=O)[C@H](CCC(=O)N[C@@H](CCN)C(=O)N[C@H](C(=O)N[C@@H](CN)C(=O)N[C@H]2CCNC(=O)[C@H]([C@@H](C)O)NC(=O)[C@H](CCN)NC(=O)[C@H](CCN)NC(=O)[C@H](CC(C)C)NC(=O)[C@@H](CC(C)C)NC(=O)[C@H](CCN)NC2=O)[C@@H](C)O)NC(=O)[C@H](CO)NC(=O)[C@H](Cc2ccc(O)cc2)NC1=O)C(C)C [Ex. 26] (I: Ac-V[Orn]YSE[dDab][hSer]WS[Tle][dY] / II: [Dab]T[Dap][Dab][Dab][dL]L[Dab][Dab]T; lactam I:2-I:C, II:4-II:C; amide I:5-II:N)	0.125 (≈ 0.0525 µM)	0.25 (≈ 0.105 µM)	0.25 (≈ 0.105 µM)	0.125 (≈ 0.0525 µM)	0.0625 (≈ 0.0262 µM)	0.25 (≈ 0.105 µM)	0.125 (≈ 0.0525 µM)	0.03125 (≈ 0.0131 µM)	1
CC(=O)N[C@H](C(=O)N[C@H]1CCCNC(=O)[C@@H](C(C)C)NC(=O)[C@H](C(C)(C)C)NC(=O)[C@H](CO)NC(=O)[C@H](Cc2c[nH]c3ccccc23)NC(=O)[C@H](CCO)NC(=O)[C@@H](CCN)NC(=O)[C@H](CCC(=O)N[C@@H](CCN)C(=O)N[C@H](C(=O)N[C@@H](CN)C(=O)N[C@H]2CCNC(=O)[C@H]([C@@H](C)O)NC(=O)[C@H](CCN)NC(=O)[C@H](CCN)NC(=O)[C@H](CC(C)C)NC(=O)[C@@H](CC(C)C)NC(=O)[C@H](CCN)NC2=O)[C@@H](C)O)NC(=O)[C@H](CO)NC(=O)[C@H](Cc2ccc(O)cc2)NC1=O)C(C)C [Ex. 27] (I: Ac-V[Orn]YSE[dDab][hSer]WS[Tle][dV] / II: [Dab]T[Dap][Dab][Dab][dL]L[Dab][Dab]T; lactam I:2-I:C, II:4-II:C; amide I:5-II:N)	1 (≈ 0.431 µM)	0.25 (≈ 0.108 µM)	0.5 (≈ 0.216 µM)	0.125 (≈ 0.0539 µM)	0.0625 (≈ 0.027 µM)	1 (≈ 0.431 µM)	0.25 (≈ 0.108 µM)	0.0625 (≈ 0.027 µM)	<1
CC(=O)N[C@H](C(=O)N[C@H]1CCCNC(=O)[C@@H]([C@H](C)O)NC(=O)[C@H](C(C)C)NC(=O)[C@H](CO)NC(=O)[C@H](Cc2c[nH]c3ccccc23)NC(=O)[C@H](CCO)NC(=O)[C@@H](CCN)NC(=O)[C@H](CCC(=O)N[C@@H](CCN)C(=O)N[C@H](C(=O)N[C@@H](CN)C(=O)N[C@H]2CCNC(=O)[C@H]([C@@H](C)O)NC(=O)[C@H](CCN)NC(=O)[C@H](CCN)NC(=O)[C@H](CC(C)C)NC(=O)[C@@H](CC(C)C)NC(=O)[C@H](CCN)NC2=O)[C@@H](C)O)NC(=O)[C@H](CCN)NC(=O)[C@H](Cc2ccc(O)cc2)NC1=O)C(C)C [Ex. 31] (I: Ac-V[Orn]Y[Dab]E[dDab][hSer]WSV[dT] / II: [Dab]T[Dap][Dab][Dab][dL]L[Dab][Dab]T; lactam I:2-I:C, II:4-II:C; amide I:5-II:N)	0.5 (≈ 0.216 µM)	0.125 (≈ 0.0539 µM)	0.25 (≈ 0.108 µM)	0.125 (≈ 0.0539 µM)	0.03125 (≈ 0.0135 µM)	0.125 (≈ 0.0539 µM)	0.0625 (≈ 0.0269 µM)	0.03125 (≈ 0.0135 µM)	<1
CC[C@H](C)[C@H](NC(C)=O)C(=O)N[C@H]1CCCNC(=O)[C@@H]([C@H](C)O)NC(=O)[C@H](C(C)(C)C)NC(=O)[C@H](CO)NC(=O)[C@H](Cc2c[nH]c3ccccc23)NC(=O)[C@H](CCO)NC(=O)[C@@H](CCN)NC(=O)[C@H](CCC(=O)N[C@@H](CCN)C(=O)N[C@H](C(=O)N[C@@H](CN)C(=O)N[C@H]2CCNC(=O)[C@H]([C@@H](C)O)NC(=O)[C@H](CCN)NC(=O)[C@H](CCN)NC(=O)[C@H](CC(C)C)NC(=O)[C@@H](CC(C)C)NC(=O)[C@H](CCN)NC2=O)[C@@H](C)O)NC(=O)[C@H](CN)NC(=O)[C@H](Cc2ccc(O)cc2)NC1=O [Ex. 32] (I: Ac-I[Orn]Y[Dap]E[dDab][hSer]WS[Tle][dT] / II: [Dab]T[Dap][Dab][Dab][dL]L[Dab][Dab]T; lactam I:2-I:C, II:4-II:C; amide I:5-II:N)	0.0625 (≈ 0.0268 µM)	0.125 (≈ 0.0536 µM)	0.25 (≈ 0.107 µM)	0.0625 (≈ 0.0268 µM)	0.0625 (≈ 0.0268 µM)	0.25 (≈ 0.107 µM)	0.125 (≈ 0.0536 µM)	0.0625 (≈ 0.0268 µM)	<1

Second part, led by results:

MIC [1] [µg/mL]	MIC [2] [µg/mL]	MIC [3] [µg/mL]	MIC [4] [µg/mL]	MIC [5] [µg/mL]	MIC [6] [µg/mL]	MIC [7] [µg/mL]	MIC [8] [µg/mL]	Compound	Hemolysis at 200 μg/mL [9] [%]
8 (≈ 3.45 µM)	0.125 (≈ 0.0539 µM)	0.25 (≈ 0.108 µM)	4 (≈ 1.72 µM)	0.125 (≈ 0.0539 µM)	8 (≈ 3.45 µM)	0.125 (≈ 0.0539 µM)	0.125 (≈ 0.0539 µM)	CC(=O)N[C@H](C(=O)N[C@H]1CCCNC(=O)[C@@H](CCN)NC(=O)[C@H](C(C)(C)C)NC(=O)[C@H](CO)NC(=O)[C@H](Cc2c[nH]c3ccccc23)NC(=O)[C@H](CCO)NC(=O)[C@@H](CCN)NC(=O)[C@H](CCC(=O)N[C@@H](CCN)C(=O)N[C@H](C(=O)N[C@@H](CN)C(=O)N[C@H]2CCNC(=O)[C@H]([C@@H](C)O)NC(=O)[C@H](CCN)NC(=O)[C@H](CCN)NC(=O)[C@H](CC(C)C)NC(=O)[C@@H](CC(C)C)NC(=O)[C@H](CCN)NC2=O)[C@@H](C)O)NC(=O)[C@H](CO)NC(=O)[C@H](Cc2ccc(O)cc2)NC1=O)C(C)C [Ex. 28] (I: Ac-V[Orn]YSE[dDab][hSer]WS[Tle][dDab] / II: [Dab]T[Dap][Dab][Dab][dL]L[Dab][Dab]T; lactam I:2-I:C, II:4-II:C; amide I:5-II:N)	<1
4 (≈ 1.71 µM)	0.0625 (≈ 0.0268 µM)	0.25 (≈ 0.107 µM)	1 (≈ 0.428 µM)	0.0625 (≈ 0.0268 µM)	8 (≈ 3.43 µM)	0.125 (≈ 0.0536 µM)	0.125 (≈ 0.0536 µM)	CC(=O)N[C@H](C(=O)N[C@H]1CCCNC(=O)[C@@H](CCCN)NC(=O)[C@H](C(C)(C)C)NC(=O)[C@H](CO)NC(=O)[C@H](Cc2c[nH]c3ccccc23)NC(=O)[C@H](CCO)NC(=O)[C@@H](CCN)NC(=O)[C@H](CCC(=O)N[C@@H](CCN)C(=O)N[C@H](C(=O)N[C@@H](CN)C(=O)N[C@H]2CCNC(=O)[C@H]([C@@H](C)O)NC(=O)[C@H](CCN)NC(=O)[C@H](CCN)NC(=O)[C@H](CC(C)C)NC(=O)[C@@H](CC(C)C)NC(=O)[C@H](CCN)NC2=O)[C@@H](C)O)NC(=O)[C@H](CO)NC(=O)[C@H](Cc2ccc(O)cc2)NC1=O)C(C)C [Ex. 29] (I: Ac-V[Orn]YSE[dDab][hSer]WS[Tle][dOrn] / II: [Dab]T[Dap][Dab][Dab][dL]L[Dab][Dab]T; lactam I:2-I:C, II:4-II:C; amide I:5-II:N)	1

Reference: patent publication US11629171B2, “Beta-hairpin peptidomimetics” (POLYPHOR AG, priority 2017, dated 2023)
